Literature values as cited in patent publication US6959708B1, “Method for co-application of gases and drugs to potentiate their action in relieving headaches, angina and other ailments” (Capnia, Incorporated, priority 1999, dated 2005).
Read-outs that look alike come from different tables or passages of the source.

What was measured:
[1] = tested on: transpulmonary gradient and pulmonary vascular resistance; conditions: inhaled low dose
pulmonary hypertension = conditions: in vivo
[2] = tested on: central and peripheral airways; conditions: asthmatic adults
[3] = tested on: serotonin-induced bronchial smooth muscle contraction
[4] = co-application of a 10% CO2 concentration
[5] = drug alone, without CO2 co-application

Compound | inhibition of serotonin-induced bronchial smooth muscle contraction [3, 4] | inhibition of serotonin-induced bronchial smooth muscle contraction [3, 5] | other results
nitric oxide [NO] |  |  | pulmonary vasoselectivity [1]: highly pulmonary vasoselective; reduction of transpulmonary gradient and pulmonary vascular resistance compared with sodium nitroprusside and prostacyclin ([1]; in vivo and clinical tests): as effective as sodium nitroprusside and prostacyclin; effect on pulmonary hypertension (pulmonary hypertension): reverse pulmonary hypertension
O=C=O [CO2, carbon dioxide] |  |  | effect on airways [2]: relax both central and peripheral airways
C[N+](C)(C)CCCCCC[N+](C)(C)C [hexamethonium] | 67% | 37% | 
CN1[C@@H]2CC[C@H]1C[C@@H](OC(=O)C(CO)c1ccccc1)C2 (some centres unmarked) [atropine] | 62% | 46% | 
